This note sets out measurements from ChEMBL document CHEMBL1201862, “PubChem BioAssay data set” (2004).

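Growth conditions: 96-well plates. Treatment: test compound, 48 hours, 5 concentrations. Analysis: linear interpolation between bracketing concentrations; unreached endpoints set to highest concentration. At the GI50, growth is halved.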 The source made the active and inactive calls. Cut-off read from the data, not from the text of the source: active = GI50 up to about 1.1 µM and inactive = higher.

Some test systems named below: UACC-62; LOX IMVI; HOP-62; OVCAR-5; NCI-H460; KM12; NCI-H23; M14; HCT-116; RPMI-8226; SK-MEL-28; A549; SK-OV-3; NCI/ADR-RES; A498; HL-60; MOLT-4; EKVX; OVCAR-4; SNB-75.
Holding throughout (test): NCI anticancer screen, dose series, 48 h

Consider `CC1CNC(NS(=O)(=O)c2cc(C(=O)Nc3ccc(F)cc3)c(Cl)cc2S)=NN1` (centres undefined), for which the GI50 was 57.3 µM (inactive) with UACC-62; 54.5 µM (inactive) in the experiment on LOX IMVI; 75.7 µM (inactive) with HOP-62; 59.7 µM (inactive) in the experiment on OVCAR-5; 78.5 µM (inactive) with NCI-H460; 49.3 µM (inactive) in the experiment with KM12. The GI50 in the experiment with NCI-H23 is 50.4 µM (inactive); in the experiment on M14, 42.3 µM (inactive); with HCT-116, 37.7 µM (inactive); with RPMI-8226, 34.9 µM (inactive); with SK-MEL-28, 56.2 µM (inactive); in the experiment on A549, 49.4 µM (inactive). In addition, the GI50 in the experiment with SK-OV-3 is > 100 µM (inactive); in the experiment with NCI/ADR-RES it was > 100 µM (inactive); in the experiment with A498 it was 17.2 µM (inactive); with HL-60, > 100 µM (inactive); in the experiment with MOLT-4, 59.3 µM (inactive); with EKVX it was > 100 µM (inactive). Also, the GI50 with OVCAR-4 was > 100 µM (inactive).
For the compound `C=C1C(=O)C[C@@]23CCC[C@@]12CC(O)C3` (some centres undefined), the GI50 is 13.6 µM (inactive) with UACC-62; 14.6 µM (inactive) with LOX IMVI; > 63 µM (inactive) with HOP-62; 23.4 µM (inactive) in the experiment on OVCAR-5; 20.8 µM (inactive) with NCI-H460; 20.8 µM (inactive) with KM12. For the same compound, the GI50 in the experiment on NCI-H23 is 21.8 µM (inactive); with HCT-116, 19 µM (inactive); in the experiment on RPMI-8226 it was 15.6 µM (inactive); in the experiment with SK-MEL-28, 21.5 µM (inactive); in the experiment with A549 it was 30.3 µM (inactive); in the experiment on SK-OV-3, 28.1 µM (inactive). In addition, the GI50 was 13.4 µM (inactive) in the experiment with NCI/ADR-RES; 15 µM (inactive) with A498; 19.5 µM (inactive) in the experiment on HL-60; 18.4 µM (inactive) with SNB-75; 23.4 µM (inactive) in the experiment with MOLT-4; 27.3 µM (inactive) with EKVX. Further, the GI50 in the experiment with OVCAR-4 is 18.6 µM (inactive).
In the case of `O=C(O)c1nc2ccc(C(F)(F)F)cc2[nH]c1=O`, the GI50 with UACC-62, in the experiment with LOX IMVI, in the experiment with HOP-62, in the experiment with OVCAR-5, in the experiment with NCI-H460 and in the experiment with KM12 was > 100 µM (inactive) throughout. Moreover, the GI50 in the experiment on NCI-H23, in the experiment on M14, in the experiment on HCT-116, with RPMI-8226, with SK-MEL-28 and in the experiment on A549 was > 100 µM (inactive) each time. Also, the GI50 in the experiment with SK-OV-3, in the experiment on NCI/ADR-RES, with A498, in the experiment with HL-60, with MOLT-4 and in the experiment with EKVX was > 100 µM (inactive) in each case. Besides, the GI50 with OVCAR-4 is > 100 µM (inactive).
As to `CCOC(=O)c1ccc(N[C@@H]2c3cc4c(cc3C(c3cc(OC)c(O)c(OC)c3)[C@H]3C(=O)OCC32)OCO4)cc1O` (some centres undefined), the GI50 in the experiment with UACC-62 was 0.469 µM (active); in the experiment on LOX IMVI, 0.185 µM (active); with HOP-62, 0.306 µM (active); in the experiment with OVCAR-5, 1.06 µM (active); with NCI-H460 it was < 0.01 µM (active); in the experiment on KM12, 0.579 µM (active). The GI50 in the experiment on NCI-H23 was 0.9 µM (active); in the experiment with HCT-116 it was 0.505 µM (active); with RPMI-8226, 0.94 µM (active); with SK-MEL-28 it was 1.22 µM (inactive); in the experiment on A549, 0.0946 µM (active); in the experiment on SK-OV-3, 0.738 µM (active). In addition, the GI50 was 4.43 µM (inactive) with NCI/ADR-RES; 0.607 µM (active) with A498; 0.133 µM (active) in the experiment on HL-60; 0.548 µM (active) in the experiment with SNB-75; 0.0207 µM (active) in the experiment with MOLT-4; 2.25 µM (inactive) in the experiment with EKVX. The GI50 in the experiment on OVCAR-4 is 7.69 µM (inactive).
As to `[N-]=[N+]=CC(=O)OCC(N)C(=O)O` (centres undefined), the GI50 was 1.19 µM (inactive) in the experiment on UACC-62; 0.205 µM (active) in the experiment with LOX IMVI; 0.582 µM (active) in the experiment on HOP-62; 14.6 µM (inactive) with OVCAR-5; 0.411 µM (active) in the experiment with NCI-H460; 0.406 µM (active) in the experiment on KM12. In addition, the GI50 in the experiment with NCI-H23 was 1.04 µM (active); in the experiment on HCT-116 it was 0.403 µM (active); in the experiment with RPMI-8226, 0.528 µM (active); with SK-MEL-28 it was 3.35 µM (inactive); in the experiment with A549 it was 0.557 µM (active); in the experiment on SK-OV-3, 2.42 µM (inactive). Also, the GI50 in the experiment on NCI/ADR-RES was 2.95 µM (inactive); in the experiment with A498 it was 0.764 µM (active); with HL-60 it was 0.448 µM (active); in the experiment with SNB-75 it was 21.3 µM (inactive); with MOLT-4, 0.216 µM (active); in the experiment with EKVX, 0.413 µM (active). The GI50 in the experiment on OVCAR-4 was 14.1 µM (inactive).
Take `Nc1ncnc2c1ncn2[C@@H]1O[C@H](COP(=O)(O)O)[C@@H](O)[C@@H]1O`: the GI50 in the experiment with UACC-62 was > 50 µM (inactive); with LOX IMVI, > 50 µM (inactive); with HOP-62 it was > 50 µM (inactive); in the experiment with OVCAR-5 it was > 40.7 µM (inactive); with NCI-H460 it was > 50 µM (inactive); in the experiment with KM12 it was > 50 µM (inactive). For the same compound, the GI50 with NCI-H23, in the experiment with HCT-116, in the experiment on RPMI-8226, in the experiment on SK-MEL-28, in the experiment on A549 and in the experiment on SK-OV-3 was > 50 µM (inactive) each time. Moreover, the GI50 was > 24.5 µM (inactive) in the experiment on NCI/ADR-RES; > 50 µM (inactive) in the experiment with A498; 14.6 µM (inactive) in the experiment with HL-60; > 50 µM (inactive) with SNB-75; > 38.8 µM (inactive) in the experiment on MOLT-4; > 50 µM (inactive) in the experiment on EKVX. In the experiment with OVCAR-4, the GI50 was > 50 µM (inactive).
In the case of `COc1cc(Nc2nc3ccc(C(F)(F)F)cc3nc2C(=O)O)cc(OC)c1OC`, the GI50 with UACC-62 is 18.6 µM (inactive); in the experiment with LOX IMVI, 19.1 µM (inactive); with HOP-62 it was 18.2 µM (inactive); in the experiment on OVCAR-5 it was 36.1 µM (inactive); with NCI-H460 it was 21.2 µM (inactive); in the experiment on KM12, 23.6 µM (inactive). Further, the GI50 with NCI-H23 is 27.8 µM (inactive); with M14, 30 µM (inactive); in the experiment with HCT-116, 18.5 µM (inactive); with RPMI-8226, 21.5 µM (inactive); in the experiment on SK-MEL-28, 26.8 µM (inactive); with A549, 33.3 µM (inactive). Further, the GI50 in the experiment with SK-OV-3 is 29.2 µM (inactive); in the experiment with NCI/ADR-RES, 21.3 µM (inactive); with HL-60, 31.3 µM (inactive); in the experiment with SNB-75, 46 µM (inactive); in the experiment on MOLT-4, 29.2 µM (inactive); in the experiment with EKVX, 34.9 µM (inactive). Further, the GI50 in the experiment on OVCAR-4 is 15.1 µM (inactive).
With `CC1(C)CCC2(C(=O)O)C(O)CC3(C)C(=CCC4C5(C)CCC(OC6OCC(O)C(O)C6OC6OCC(O)C(O)C6OC6OCC(O)C(OC7OC(CO)C(O)C(O)C7O)C6O)C(C)(C)C5CCC43C)C2C1` (centres undefined), the GI50 was 31.7 µM (inactive) in the experiment on UACC-62; 47.5 µM (inactive) in the experiment on LOX IMVI; > 100 µM (inactive) with HOP-62; 33.8 µM (inactive) with OVCAR-5; > 100 µM (inactive) with NCI-H460; 21.7 µM (inactive) in the experiment on KM12. The GI50 in the experiment on NCI-H23 is 21 µM (inactive); with M14 it was 40.1 µM (inactive); in the experiment on HCT-116 it was > 100 µM (inactive); with SK-MEL-28, 36.5 µM (inactive); in the experiment with A549 it was 33.7 µM (inactive); with SK-OV-3, 19.8 µM (inactive). For the same compound, the GI50 was > 100 µM (inactive) in the experiment on NCI/ADR-RES; 26.9 µM (inactive) in the experiment on A498; 24.7 µM (inactive) in the experiment with HL-60; 17.9 µM (inactive) in the experiment on SNB-75; 37.9 µM (inactive) in the experiment with EKVX; 28.5 µM (inactive) in the experiment on OVCAR-4.
For `O=NN(CCCl)C(=O)NC1CCSc2ccccc21` (centres undefined), the GI50 in the experiment on UACC-62 is 25 µM (inactive); in the experiment with LOX IMVI, 82 µM (inactive); in the experiment on HOP-62 it was 0.776 µM (active); with OVCAR-5, > 100 µM (inactive); in the experiment on NCI-H460, > 69.3 µM (inactive); in the experiment with KM12, > 100 µM (inactive). Besides, the GI50 with NCI-H23 is > 100 µM (inactive); with HCT-116, > 100 µM (inactive); in the experiment with RPMI-8226, > 61.4 µM (inactive); with SK-MEL-28 it was > 58.2 µM (inactive); with A549, > 100 µM (inactive); in the experiment on SK-OV-3 it was > 100 µM (inactive). The GI50 with NCI/ADR-RES is > 100 µM (inactive); with A498, > 100 µM (inactive); in the experiment with HL-60 it was 23.3 µM (inactive); in the experiment on SNB-75 it was 87.3 µM (inactive); in the experiment with MOLT-4, 35.1 µM (inactive); in the experiment with EKVX it was 28.3 µM (inactive). Also, the GI50 in the experiment on OVCAR-4 was > 100 µM (inactive).
On to `COC(=O)CC1(CNC(=O)OCc2ccccc2)OCCO1`, for which the GI50 in the experiment on UACC-62, in the experiment with LOX IMVI, in the experiment with OVCAR-5, in the experiment on NCI-H460, in the experiment on KM12 and in the experiment with NCI-H23 was > 100 µM (inactive) throughout. Besides, the GI50 with M14, in the experiment on HCT-116, in the experiment with RPMI-8226, in the experiment on SK-MEL-28, in the experiment on A549 and in the experiment with SK-OV-3 was > 100 µM (inactive) throughout. In addition, the GI50 in the experiment on NCI/ADR-RES, in the experiment on A498, in the experiment with HL-60, with SNB-75, in the experiment with MOLT-4 and with EKVX was > 100 µM (inactive) each time. Further, in the experiment on OVCAR-4, the GI50 is > 100 µM (inactive).
